Source: the NIST ThermoML archive (doi:10.1021/je800463k)

Assay: mn = molality of the nth substance listed, in mol/kg
Conditions: 101 kPa, Liquid; for mass density: Pycnometric method; for electrical conductivity: Frequency=0.001 MHz, Alternating current cell with electrodes; for speed of sound: Frequency=2 MHz

CC(=O)[O-].CC(=O)[O-].[Mg+2] [magnesium acetate] + CO
Conditions	electrical conductivity [S/m]	mass density [kg/m3]	speed of sound [m/s]	viscosity [mPa·s]
299.65 K, m1 = 0.2422	–	803.36	–	–
300.15 K, m1 = 0.2003	–	800.18	–	–
300.2 K, m1 = 0.1402	–	796.94	–	–
300.25 K, m1 = 0.0646	–	791.69	–	–
300.35 K, m1 = 0.053	–	789.91	–	–
300.8 K, m1 = 0.0339	–	788.95	–	–
300.8 K, m1 = 0.3042	–	804.76	–	–
300.85 K, m1 = 0.014	–	787.26	–	–
300.85 K, m1 = 0.2668	–	803.07	–	–
301.1 K, m1 = 0.1112	–	794.25	–	–
301.5 K, m1 = 0.2422	–	801.62	–	–
301.9 K, m1 = 0.2003	–	798.5	–	–
301.9 K, m1 = 0.2192	–	799.27	–	–
301.95 K, m1 = 0.1798	–	798.03	–	–
302.05 K, m1 = 0.0646	–	790	–	–
302.15 K, m1 = 0.053	–	788.23	–	–
302.2 K, m1 = 0.0093	–	785.05	–	–
302.35 K, m1 = 0.0059	–	784.31	–	–
302.55 K, m1 = 0.3042	–	803.02	–	–
302.8 K, m1 = 0.2668	–	801.25	–	–
302.85 K, m1 = 0.1455	–	794.77	–	–
302.9 K, m1 = 0.1402	–	794.38	–	–
303.05 K, m1 = 0.0855	–	789.45	–	–
303.15 K, m1 = 0.0059	0.0362	783.47	1086.1	–
303.15 K, m1 = 0.0093	0.0586	–	1085.4	–
303.15 K, m1 = 0.014	–	–	–	0.5207
303.15 K, m1 = 0.018	0.0665	–	1086.1	0.5223
303.15 K, m1 = 0.0339	0.0868	–	–	0.5306
303.15 K, m1 = 0.053	0.1018	–	1087.5	–
303.15 K, m1 = 0.0646	0.1103	–	–	0.5393
303.15 K, m1 = 0.0855	0.122	–	1090.3	–
303.15 K, m1 = 0.1012	–	–	–	0.5622
303.15 K, m1 = 0.1024	0.1302	–	1093.3	–
303.15 K, m1 = 0.13	–	–	–	0.5718
303.15 K, m1 = 0.1402	0.1487	–	1092.4	0.5779
303.15 K, m1 = 0.1455	0.1524	–	1091.9	–
303.15 K, m1 = 0.17	–	–	–	0.5933
303.15 K, m1 = 0.1837	0.1617	–	1094.3	–
303.15 K, m1 = 0.2003	–	–	–	0.6048
303.15 K, m1 = 0.2192	–	–	1097.7	–
303.15 K, m1 = 0.2422	0.1746	–	1095.1	0.6232
303.15 K, m1 = 0.2453	–	–	–	0.6232
303.15 K, m1 = 0.2889	0.181	–	1098.2	0.642
303.15 K, m1 = 0.3042	–	–	1099.8	–
303.25 K, m1 = 0.2422	–	799.9	–	–
303.45 K, m1 = 0.0339	–	786.42	–	–
303.5 K, m1 = 0.014	–	784.74	–	–
303.65 K, m1 = 0.2192	–	797.61	–	–
303.75 K, m1 = 0.1112	–	791.73	–	–
303.95 K, m1 = 0.053	–	786.54	–	–
304.35 K, m1 = 0.3042	–	801.29	–	–
304.6 K, m1 = 0.1402	–	792.72	–	–
304.6 K, m1 = 0.1798	–	795.47	–	–
304.6 K, m1 = 0.2003	–	795.91	–	–
304.65 K, m1 = 0.0646	–	787.5	–	–
304.75 K, m1 = 0.0855	–	787.76	–	–
304.85 K, m1 = 0.2668	–	799.19	–	–
304.9 K, m1 = 0.0093	–	782.5	–	–
304.95 K, m1 = 0.0059	–	781.79	–	–
305.3 K, m1 = 0.014	–	783.09	–	–
305.5 K, m1 = 0.1455	–	792.24	–	–
305.65 K, m1 = 0.053	–	784.95	–	–
305.8 K, m1 = 0.2422	–	797.4	–	–
305.95 K, m1 = 0.0339	–	783.96	–	–
306.1 K, m1 = 0.3042	–	799.61	–	–
306.15 K, m1 = 0.2192	–	795.21	–	–
306.25 K, m1 = 0.1402	–	791.07	–	–
306.3 K, m1 = 0.1112	–	789.29	–	–
306.35 K, m1 = 0.2003	–	794.29	–	–
306.4 K, m1 = 0.1798	–	793.8	–	–
306.55 K, m1 = 0.0093	–	780.91	–	–
306.65 K, m1 = 0.0059	–	780.15	–	–
306.95 K, m1 = 0.2668	–	797.14	–	–
307.1 K, m1 = 0.0646	–	785.07	–	–
307.3 K, m1 = 0.053	–	783.25	–	–
307.3 K, m1 = 0.1455	–	790.54	–	–
307.35 K, m1 = 0.0855	–	785.26	–	–
307.5 K, m1 = 0.2422	–	795.76	–	–
307.7 K, m1 = 0.0339	–	782.34	–	–
307.7 K, m1 = 0.3042	–	797.95	–	–
307.75 K, m1 = 0.014	–	780.67	–	–
307.8 K, m1 = 0.2192	–	793.51	–	–
307.95 K, m1 = 0.1402	–	789.51	–	–
308.15 K, m1 = 0.0059	0.0369	–	1070.1	–
308.15 K, m1 = 0.0093	0.0592	–	1068.7	–
308.15 K, m1 = 0.014	–	–	–	0.4859
308.15 K, m1 = 0.018	0.0674	–	1071.5	0.4878
308.15 K, m1 = 0.0339	0.0879	–	–	0.496
308.15 K, m1 = 0.053	0.103	–	1075.1	–
308.15 K, m1 = 0.0646	0.112	–	–	0.5027
308.15 K, m1 = 0.0855	0.1232	–	1073.8	–
308.15 K, m1 = 0.1012	–	–	–	0.5234
308.15 K, m1 = 0.1024	0.1326	–	1077.1	–
308.15 K, m1 = 0.13	–	–	–	0.532
308.15 K, m1 = 0.1402	0.151	–	1078.5	0.5368
308.15 K, m1 = 0.1455	0.1557	–	1075.3	–
308.15 K, m1 = 0.17	–	–	–	0.5518
308.15 K, m1 = 0.1837	0.1631	–	1078.1	–
308.15 K, m1 = 0.2003	–	–	–	0.5625
308.15 K, m1 = 0.2192	–	–	1081.5	–
308.15 K, m1 = 0.2422	0.1782	–	1081.2	0.5782
308.15 K, m1 = 0.2453	–	–	–	0.578
308.15 K, m1 = 0.2889	0.1835	–	1082	0.5942
308.15 K, m1 = 0.3042	–	–	1083.6	–
308.2 K, m1 = 0.0093	–	779.23	–	–
308.7 K, m1 = 0.1112	–	786.87	–	–
308.9 K, m1 = 0.053	–	781.63	–	–
308.9 K, m1 = 0.1798	–	791.35	–	–
308.9 K, m1 = 0.2003	–	791.74	–	–
308.9 K, m1 = 0.2668	–	795.13	–	–
308.95 K, m1 = 0.0855	–	783.63	–	–
309.1 K, m1 = 0.0059	–	777.74	–	–
309.1 K, m1 = 0.1455	–	788.87	–	–
309.45 K, m1 = 0.2192	–	791.87	–	–
309.5 K, m1 = 0.3042	–	796.38	–	–
309.75 K, m1 = 0.0646	–	782.66	–	–
309.95 K, m1 = 0.2422	–	793.32	–	–
310.25 K, m1 = 0.014	–	778.28	–	–
310.25 K, m1 = 0.0339	–	779.95	–	–
310.5 K, m1 = 0.1402	–	787	–	–
310.65 K, m1 = 0.0093	–	776.87	–	–
311 K, m1 = 0.2668	–	793.11	–	–
311.2 K, m1 = 0.1112	–	784.4	–	–
311.2 K, m1 = 0.3042	–	794.7	–	–
311.4 K, m1 = 0.053	–	779.24	–	–
311.5 K, m1 = 0.0855	–	781.28	–	–
311.5 K, m1 = 0.1798	–	788.93	–	–
311.55 K, m1 = 0.0059	–	775.36	–	–
311.6 K, m1 = 0.1455	–	786.44	–	–
311.9 K, m1 = 0.2192	–	789.45	–	–
312.1 K, m1 = 0.1402	–	785.37	–	–
312.15 K, m1 = 0.0646	–	780.21	–	–
312.3 K, m1 = 0.0093	–	775.23	–	–
312.35 K, m1 = 0.2003	–	788.52	–	–
312.45 K, m1 = 0.2422	–	790.83	–	–
312.7 K, m1 = 0.0339	–	777.5	–	–
312.75 K, m1 = 0.014	–	775.84	–	–
312.9 K, m1 = 0.053	–	777.6	–	–
313.05 K, m1 = 0.0855	–	779.61	–	–
313.1 K, m1 = 0.2668	–	791.07	–	–
313.15 K, m1 = 0.0059	0.0376	–	1053.9	–
313.15 K, m1 = 0.0093	0.0598	–	1054.5	–
313.15 K, m1 = 0.014	–	–	–	0.4545
313.15 K, m1 = 0.018	0.0685	–	1055.7	0.4559
313.15 K, m1 = 0.0339	0.089	–	–	0.4632
313.15 K, m1 = 0.053	0.1041	–	1059.6	–
313.15 K, m1 = 0.0646	0.1137	–	–	0.4698
313.15 K, m1 = 0.0855	0.1243	–	1059	–
313.15 K, m1 = 0.1012	–	–	–	0.4881
313.15 K, m1 = 0.1024	0.1348	–	1061	–
313.15 K, m1 = 0.13	–	–	–	0.4956
313.15 K, m1 = 0.1402	0.1535	–	1062.7	0.5
313.15 K, m1 = 0.1455	0.1577	–	1059.1	–
313.15 K, m1 = 0.17	–	–	–	0.5145
313.15 K, m1 = 0.1837	0.166	–	1061.4	–
313.15 K, m1 = 0.2003	–	–	–	0.5239
313.15 K, m1 = 0.2192	–	–	1064.3	–
313.15 K, m1 = 0.2422	0.1817	–	1064.9	0.5375
313.15 K, m1 = 0.2453	–	–	–	0.5373
313.15 K, m1 = 0.2889	0.1868	–	1066.1	0.5513
313.15 K, m1 = 0.3042	–	–	1067.2	–
313.55 K, m1 = 0.3042	–	792.2	–	–
313.65 K, m1 = 0.1112	–	782	–	–
313.95 K, m1 = 0.1455	–	784.03	–	–
313.95 K, m1 = 0.1798	–	786.45	–	–
314.05 K, m1 = 0.0059	–	772.92	–	–
314.55 K, m1 = 0.1402	–	782.97	–	–
314.6 K, m1 = 0.0646	–	777.82	–	–
314.7 K, m1 = 0.0093	–	772.8	–	–
314.8 K, m1 = 0.2003	–	786.04	–	–
314.8 K, m1 = 0.2422	–	788.41	–	–
314.8 K, m1 = 0.2668	–	789.38	–	–
315.1 K, m1 = 0.0339	–	775.12	–	–
315.2 K, m1 = 0.014	–	773.47	–	–
315.4 K, m1 = 0.053	–	775.16	–	–
315.45 K, m1 = 0.0855	–	777.19	–	–
316.05 K, m1 = 0.3042	–	789.78	–	–
316.35 K, m1 = 0.0059	–	770.56	–	–
316.35 K, m1 = 0.1798	–	784.05	–	–
316.4 K, m1 = 0.1455	–	781.57	–	–
316.95 K, m1 = 0.0855	–	775.61	–	–
316.95 K, m1 = 0.2668	–	787.26	–	–
317 K, m1 = 0.0093	–	770.44	–	–
317.25 K, m1 = 0.2003	–	783.64	–	–
318.7 K, m1 = 0.1455	–	779.18	–	–
